experiment: in vitro; details: human, hela cells, % viability

Compound	viability at 28.5 h, 10 µM [%]
CCCc1cc(CNC(=O)c2ccnn2C(C)C)on1 [CBK282047]	97.4
CC(C)(C)c1cc(C(c2ccccc2O)N2CCOCC2)cc(C(C)(C)C)c1O (centres unmarked) [CBK262998]	86.4
Cc1cccc(NCC2CCN(Cc3cc(=O)n4ccccc4n3)C2)n1 (centres unmarked) [CBK305756]	100
O=C(COc1ccc(I)cc1)Nc1cccnc1 [CBK263430]	98.9
CCC(CC)NS(=O)(=O)c1cccc(C(=O)O)c1 [CBK287225]	88.3
c1cncc(CNCc2ccoc2)c1 [CBK001744C]	88.1
CCN(Cc1ccncc1)C(=O)NCc1ccc2c(c1)OCO2 [CBK145056]	102
O=C(NCC1(O)CCSC1)c1c[nH]nc1-c1cc2ccccc2o1 (centres unmarked) [CBK306159]	88.3
COC(=O)COc1ccc(Oc2nc(N(C)C)nc(N3CCOCC3)n2)nn1 [CBK267258]	104
COc1ccc(C(=O)N[C@H]2C[C@H]3C(=O)Nc4ccc(-c5ccsc5)cc4C(=O)N3C2)cc1 [CBK289362]	91.7
COC(=O)NC(O)C(=O)c1ccco1 (centres unmarked) [CBK027757]	94.7
CCOC(=O)CNC(=O)Nc1cc2ccccc2c(Br)n1 [CBK063279]	92.5
COc1cc([C@@]23CCC(=O)C[C@@H]2N(C)CC3)ccc1OCc1ccccc1 [CBK049727]	106
Cn1nc(-c2ccc(S(=O)(=O)Nc3nnn[nH]3)s2)cc1C(F)(F)F [CBK062390]	94.4
O=C(Nc1c(F)cc(F)cc1OC1CCNCC1)c1cccnc1 [CBK050275T]	100
CCOC(=O)CN1CCCN(c2nccc(OCC3COc4ccccc4O3)n2)CC1 (centres unmarked) [CBK083975]	100
CC(=O)Nc1cccc(NC(=O)c2cnc3sc(C)cn3c2=O)c1 [CBK287715]	92
COc1ccc2c(c1)C=C(/C=C/C1=CCN(C)CC1)CO2 [CBK283818]	81.1
Cc1nc(Cl)c(C(=O)NCCc2ccc(S(=O)(=O)NC(=O)NC3CCCCC3)cc2)nc1C [CBK011777]	91.3
CCOC(=O)CCCNC(=O)N1CCN(Cc2ccccc2)CC1 [CBK155664]	89.2
O=C(c1cccc([N+](=O)[O-])c1)c1ccc2c(c1)C(=O)N(Cc1cccnc1)C2=O [CBK262784]	80.1
Cc1sc(NC(=S)NC(=O)c2ccco2)c(C(N)=O)c1C [CBK266272]	98.9

Compound	viability at 28.5 h, 10 µM [%]
Cc1nc(C)c(C(=O)N2CCN(Cc3ccccc3)CC2)s1 [CBK200177]	101
COc1cc(-c2cc(Nc3ccc(N(C)C)cc3)ncn2)cc(OC)c1OC [CBK090945]	38.7
Nc1cccc(Sc2cccc(C(F)(F)F)n2)c1 [CBK115239]	99.3
O=[N+]([O-])c1nn(-c2ccc3c(c2)OCCO3)[n+]([O-])c1NCCN1CCN(c2ccccc2F)CC1 [CBK268314]	109
CC(=O)C1=C(c2ccccc2)NC(=S)NC1c1cc(Cl)ccc1OCC(=O)O (centres unmarked) [CBK267300]	99.4
CC(C)Cn1c(=O)[nH]c2ncc(-c3cccc4ccccc34)nc21 [CBK064194]	107
O=C1CC2(CCN(C(=O)C3CCOC3)CC2)Oc2c(Br)cc(Br)cc21 (centres unmarked) [CBK156512]	96.4
CCOC(=O)CSc1nnc(NS(=O)(=O)c2cccc(Cl)c2C)s1 [CBK004669]	104
Cc1c(C(=O)N2CCN(C3CC3)CC2)nnn1Cc1ccc(F)cc1F [CBK305507]	97.1
COC(=O)c1ccc(-c2ccsc2)nc1 [CBK149229]	116
O=S(=O)(Cc1noc([C@@H]2C[C@@H](O)CN2Cc2ccc(F)cc2)n1)c1ccc(F)cc1 [CBK288831]	118
CN(CCc1ccccc1)Cc1nc2ccccc2c(=O)[nH]1 [CBK283204]	98.7
O=C(c1cc(-c2ccc(Cl)cc2)nc2ccccc12)n1nnc2ccccc21 [CBK264640]	101
CN(C)CCN1C(=O)CCc2ccccc21 [CBK023390C]	102
O=C(Nc1nsc(-c2ccccc2)n1)c1ccc(F)cc1 [CBK113232]	87.8
CC(=O)Oc1ccc(-c2cccc(C(=O)NCCO)c2)cc1 [CBK263829]	105
CCOc1ccsc1C(=O)N1CCN(CCc2ccccc2)CC1 [CBK200229]	91.5
Cc1ccc(Cc2cnc(NC(=O)CN3CSCC3=O)s2)cc1Cl [CBK305001]	82
Cc1ccc(S(=O)(=O)N2CC[C@@H]3C[C@H](NC(=O)C4CC4C)[C@@H]32)cc1 (some centres unmarked) [CBK284968]	90
CCn1cc(Cl)c(C(=O)NC2CCN(c3cc(C)n[nH]3)CC2)n1 [CBK304322]	91.8
CS(=O)(=O)c1ccc(-c2cccc(COC3CCN(C(=O)Cc4ccc(Cl)cc4)CC3)c2)cc1 [CBK149504]	110
Cc1cc(C(=O)Nc2nc(Cc3n[nH]c(=S)n3C)cs2)sc1C [CBK296687]	68.5

Compound	viability at 28.5 h, 10 µM [%]
Cc1cc(NC(=O)Cc2ccccc2)nc2c1c(=O)oc1ccccc12 [CBK291127]	102
CN1CCC[C@H]1C(=O)Nc1ccc2[nH]ccc2c1 [CBK159699]	97.6
CN1CCC(N(C)C(=O)Nc2cccnc2)C1 (centres unmarked) [CBK156026]	93.8
Cc1ccc(S(=O)(=O)Nc2sccc2C(=O)N2CCN(C)CC2)cc1 [CBK042264]	89.3
CCC(CC)C(=O)N1CCC2(CC1)Nc1cccnc1-n1cccc12 [CBK284508]	80.7
CC(C)(C)OC(=O)N1CCC(Oc2ccc(CN)cc2)CC1 [CBK004131]	81.7
Cc1cc(C(=O)N2CCn3cnnc3C2)c(C2CC2)o1 [CBK282059]	115
c1coc(CNc2cncc(-c3cccs3)n2)c1 [CBK065630]	96.6
Cc1cc(C[C@@H]2COC[C@H]2NCc2cccs2)on1 [CBK282999]	95.8
O=C(Nc1ccc(Oc2ncccn2)cc1)c1csc(-c2ccccc2)n1 [CBK298324]	85.5
N#CC(N)c1c(Cl)cccc1Cl (centres unmarked) [CBK008288C]	103
Oc1ccc2c(c1)C(O)CC1(CCN(CC(O)c3ccc(-c4ccccc4)cc3)CC1)O2 (centres unmarked) [CBK286351]	91.3
Cc1ccc2oc(-c3ccc(O)cc3)nc2c1 [CBK093878]	96.2
OCC1CCCN1c1cncc(-c2ccc(F)cc2F)n1 (centres unmarked) [CBK065891]	112
CS(=O)(=O)Nc1ccc2cc(-c3cccc(C(F)(F)F)c3)cnc2n1 [CBK085671]	94.1
Nc1ncc(-c2cccc(F)c2)nc1Nc1ccc2[nH]ccc2c1 [CBK063851]	95.1
CCCN1CCC(N2CCN(c3ccc([N+](=O)[O-])cc3)CC2)CC1 [CBK018459]	96.3
Cc1ccc(Cl)cc1N1CCN(C(=O)C2C3C=CC(C3)C2C(=O)O)CC1 (centres unmarked) [CBK287025]	117
Cc1ccc2c(c1)N(CC(N)=O)C(=O)CO2 [CBK270208]	92.9
O=S(=O)(Nc1nnn[nH]1)c1csc2ccccc12 [CBK062590]	103
CC(=O)N[C@H](CC(N)=O)C(=O)N1CCC2(C/C=C/C[C@@H]3COCC[C@@H]3NC(=O)[C@@H](CC(C)C)NC2=O)CC1 [CBK292207]	106

Reference: PMC12040169 (PLOS Biology, 2025)
